Source: US11878003B2, “Composition comprising organoselenium compound for treatment of skeletal muscle atrophy” (Gwangju Institute of Science and Technology, priority 2021, dated 2024)
Where two headings read alike, the source gives them in different places. Blank lines part the entries; values can stand above or below the compound they belong to.

Assays:
C2C12 myoblasts [1] = experiment: Myogenesis, myotube formation and morphology without dexamethasone; type: cell-based, mouse; settings: for myotube formation and overall myotube diameters: 10 μM ebselen, 5 mM LiCl or 1.25 μM BIO, 24 hours
Method: (§1) Then, the myoblasts were treated with a differentiation medium (DMEM supplemented with 2% horse serum and PenStrep) for 72 hours so that the myoblasts were induced to differentiate into myotubes.
In differentiation cultures, myotubes were visualized by treatment with 50 nM MitoTracker Red CMX-Ros and […] DAPI in a differentiation medium at 37° C. for 30 minutes and imaged using a fluorescence microscope (Leica DMI3000B, Germany) as described above.
(§2) To evaluate myotube formation and atrophy, five microscopic fields of H&E-stained or MitoTracker Red CMX-Ros-stained cultures were randomly captured, and multinuclear myotube formation and diameters were calculated. Myotubes were designated as multinucleated cells containing three or more nuclei, and the diameters of myotubes were calculated using ImageJ 1.48 software (National Institutes of Health, Bethesda, MD, USA).

C2C12 myotubes [2] = experiment: MTT assay and microscopy, myotube viability; type: cell-based, mouse
Method: as §1
(§3) Cell proliferation was evaluated through MTT (3-(4,5-dimethylthiazol-2-yl)-2,5-diphenyltetrazolium bromide) assay as described above. Myoblasts were seeded 3 times into 96-well plates at a density of 2×10^3 cells per well. A compound to be tested was added, followed by 48 hours of incubation, the medium was changed to an MTT solution (0.5 mg/mL, final concentration), and the plate was incubated in an incubator at 37° C., 5%, CO2 conditions. After 60 minutes of incubation, 50 μL of DMSO was added. Optical density in each well was measured at 570 nm using a microplate reader (VersaMax, Molecular Devices, USA). For myotube analysis, myoblasts were differentiated for […], the medium was supplemented with the compound of interest, 48 hours of incubation was additionally performed, and the cultures were assayed.

C2C12 myoblasts [3] = experiment: MTT assay, myoblast viability; type: cell-based, mouse; settings: for IC50: read-out: IC50, MTT assessment; for concentration at which cytotoxicity was not observed: MTT
Method: C2C12 mouse skeletal muscle progenitor cells (myoblasts) were grown in a growth medium including Dulbecco's Modified Eagle's Medium (DMEM) supplemented with 10% fetal bovine serum (FBS), 50 units/mL if penicillin, and […] of streptomycin (PenStrep).
as §3

C2C12 myotubes [4] = experiment: Dexamethasone-induced myotube atrophy, H&E morphology; type: cell-based, mouse; settings: co-treatment with 10 μM dexamethasone; for average myotube diameter: 24 hours
Method: (§4) C2C12 myoblasts were seeded onto 6-well plates in a growth medium (GM). After reaching confluence, the cultures were treated with DM for 72 hours, and myotube atrophy was induced with DM containing 10 μM dexamethasone for 24 hours in the presence or absence of the drug of interest. Myotubes were visualized using hematoxylin and eosin staining according to a previously published protocol, and imaged with an optical microscope (Olympus CKX41, Japan). A myotube distribution was calculated by dividing the number of myotubes in each group by the total number of myotubes per image.
as §2

[5] = tested on: Atrogin-1, MuRF-1, FoxO3a expression; experiment: qPCR of atrophy genes in dexamethasone-treated myotubes; type: cell-based, mouse; settings: for Atrogin-1 and FoxO3a expression: 10 μM dexamethasone 24 hours
Method: as §4
(§5) The transcription level of the gene was measured using a StepOnePlus Real Time PCR System (manufactured by Applied Biosystems, UK). cDNA was reverse transcribed from total RNA using an AccuPower RT PreMix (manufactured by Bioneer, USA). Real-time PCR was performed by modifying the manufacturer's instructions as follows.
(§6) PCR was performed three times using a total of 20 μL of 2×Power SYBR Green PCR Master Mix containing 200 nM of specific primers and 1 μL of cDNA. 10 minutes of incubation was performed at 95° C. prior to PCR amplification. The amplification consisted of 40 cycles of denaturation (for 15 seconds at 95° C.), annealing (for 1 minute at 60° C.), and extension (for 20 seconds at 72° C.). Extension and fluorescence detection were performed at 72° C. after each cycle. After the final cycle, melting point analysis was performed using continuous fluorescence detection on samples at a temperature in a range of 60° C. to 95° C. Specific cDNA samples were included in each run and used as a reference for comparison between runs. Expression levels of GAPDH were used for normalization and expression levels of all other genes were calculated.

human skeletal myoblasts = experiment: Dexamethasone atrophy in human skeletal myotubes; type: cell-based; settings: 24 hours
Method: Human skeletal myoblasts were purchased from Thermo-Fisher Scientific. Myoblasts were thawed in a water bath, washed with […], and centrifuged at 180 g for 5 minutes at room temperature. Next, myoblasts were resuspended in DM and seeded in a 12-well plate at a density of 4.8×10^4 cells/well. After 72 hours, the myoblasts were treated with a compound for 24 hours. The myotube diameter was measured by optical microscopy analysis of DIC captured images (Olympus CKX41).

C57BL/6J mice [6] = experiment: Skeletal muscle degenerative glycerol model; type: in vivo, mouse
Method: The glycerol infusion protocol was used to induce muscle degeneration. Male C57BL/6J mice were anesthetized with PBS containing ketamine (22 mg/kg; Yuhan, Republic of Korea) and xylazine (10 mg/kg; Bayer, Republic of Korea), 100 μL glycerol (50% vol/vol) was injected into unilateral gastrocnemius muscle and splenic muscle.
The mice were treated with vehicle (0.5% methyl cellulose) or with vehicle+ebselen (30 mg/kg) via oral gavage every 24 hours (n=6 per group). A muscle fatigue test was performed after 5 days.
Muscle fatigue was measured using a known protocol (Chiu, et al.). In summary, mice were trained prior to initiating the fatigue task using an accelerated Rotarod (Ugo Basile, Italy). Mice were trained with a Rotarod at a constant speed of 13 rpm for 15 minutes. After 15-minute recovery, mice were placed on a Rotarod adapted to accelerate to 13 to 25 rpm within 3 minutes, for 15 minutes. After 24 hours, the muscle fatigue test was performed with a ramping rate of 13 to 25 rpm within 3 minutes and held at 25 rpm for 30 minutes. For each mouse, a delay time falling from the Rotarod was measured. Mice being tiered were classified as falling 4 times within 1 minute and the test was stopped.
Before sacrificing the mice, the mice were anesthetized by intraperitoneal injection of PBS containing ketamine (22 mg/kg; Yuhan Corporation, Korea) and xylazine (10 mg/kg; Bayer, Korea). After sacrificing the mice, the gastrocnemius and splenic muscles of the glycerol injury model were dissected and weighed. For histological analysis, the muscles were incubated overnight with 4% paraformaldehyde at 4° C., fixed, and embedded in paraffin. 5-μm muscle sections were obtained and was stained with H&E using a kit according to the manufacturer's instructions (Merck & Co., USA). Damaged areas and cross-sectional areas were measured using ImageJ 1.48 software (National Institutes of Health).

C57BL/6J mice [7] = experiment: Skeletal muscle atrophy dexamethasone model; type: in vivo, mouse
Method: 13-week-old male C57BL/6J mice were treated with drugs as follows: • 1) Injection of vehicle (4% hydroxypropyl-β-cyclodextrin) alone; • 2) 15 mg/kg of dexamethasone dissolved in vehicle; • 3) 15 mg/kg of dexamethasone and 1 mg/kg of ebselen; and • 4) Injection of 15 mg/kg dexamethasone and 3 mg/kg ebselen (n=5 per group).
The muscle condition was evaluated after intraperitoneal injection daily for 14 days with the same drug as above.
A grip strength of each mouse was recorded using a BIO-GS3 (Bioseb, USA). To measure the grip strength, mice were placed on a metal grid to grip the metal grid with four paws and were gently pulled back until the mice were unable to continue holding the grid. Muscle strength was expressed using the maximum value obtained from three trials at 1-minute intervals.
Mice were placed in the center of a grid, and it was made sure that the grid was gripped by the limbs of the mice. Next, the grid was turned over and hung at a height of 50 cm above a baseline, and the hanging time was measured up to 10 minutes.
In the case of the dexamethasone-induced atrophy model, the quadriceps, gastrocnemius and splenic muscles were dissected and weighed. The quadriceps were stained with H&E according to the same protocol used for the glycerol test and used for histological analysis.

IMPase = IMPase activity assay in myotubes (myo-inositol assay kit); type: cell-based, mouse; settings: 10 μM dexamethasone
Method: IMPase activity in cells and tissues was measured using a myo-inositol assay kit (Megazyme, Ireland) according to the manufacturer's instructions. The cell […] was sonicated in PBS for 90 seconds with a 30-second on and 15-second off cycle (Vibra-Cell, USA) as described above, and then centrifuged at 13,000×g for 15 minutes as described above. Thus, the supernatant was prepared.

C2C12 myotubes [8] = experiment: SUnSET assay of protein synthesis; type: cell-based, mouse
Method: Surface sensing translation (SUnSET) assay was performed as described above. Briefly, 1 μg/mL puromycin was added to the culture and the harvest was lysed after 10 minutes. For immunoblotting, the myotube extract was treated with anti-puromycin 12D10 antibody (MABE343; Millipore).

FoxO3a = experiment: Immunocytochemistry of FoxO3a in myotubes; type: cell-based, mouse
Method: Myoblasts were differentiated into myotubes in 6 well plates. The myotubes were then immunostained for FoxO3a (Cell Signaling Technology, dilution of 1:400). Alexa Fluor 488 goat anti-mouse IgG was used as a secondary antibody (manufactured by Invitrogen). Nuclei were stained using DAPI solution (1 μM dissolved in third distilled water). Staining was visualized by fluorescence microscopy (Leica DMI3000 B).

[9] = tested on: Pax7, Myf5, MyoG, Myh2 expression; experiment: qPCR of myogenic markers in differentiating myoblasts; type: cell-based, mouse; settings: differentiation medium, 100 mM myo-inositol
Method: as §5, §6

[10] = 100 mM myo-inositol, no dexamethasone

Compound: [Cl-].[Li+] [LiCl]
myotube formation and overall myotube diameters (C2C12 myoblasts [1]): enhanced myotube formation and increased overall myotube diameters
number of observable myotubes (C2C12 myotubes [2]; microscopic observation, 50 mM LiCl): reduced
IC50 (C2C12 myoblasts [3]; 48 hours): 19.9 mM
concentration at which cytotoxicity was not observed (C2C12 myoblasts [3]): up to 5 mM
proportion of larger diameter myotubes (C2C12 myotubes [4]): larger diameter myotubes were observed
average myotube diameter (C2C12 myotubes [4]): increased
FoxO3a expression ([5]; 10 μM dexamethasone): inhibited the up-regulation

IMPase activity (IMPase): effective in inhibiting IMPase activity
Compound: O=c1c2ccccc2[se]n1-c1ccccc1 [ebselen]
myotube formation and overall myotube diameters (C2C12 myoblasts [1]): enhanced myotube formation and increased overall myotube diameters
proportion of larger diameter myotubes (C2C12 myoblasts [1]; no dexamethasone): significantly increased
myotube diameter and proportion of large diameter myotubes (human skeletal myoblasts): inhibited the effect of dexamethasone
body weight (C57BL/6J mice [6]; 30 mg/kg ebselen, oral gavage every 24 hours): no significant difference
concentration of myo-inositol (C57BL/6J mice [6]; gastrocnemius muscle damaged by glycerol): decreased
expression of Atrogin-1 and Murf-1 (C57BL/6J mice [6]; gastrocnemius, qPCR): effectively reduced
gastrocnemius muscle mass (C57BL/6J mice [6]; glycerol-injected muscle): increased
mass loss of splenic muscle (C57BL/6J mice [6]; glycerol-injected splenic muscle): significantly inhibited
damaged area (C57BL/6J mice [6]; histology, H&E): reduced
fiber cross-sectional area (C57BL/6J mice [6]; histology, H&E): larger
gastrocnemius mass (C57BL/6J mice [6]; non-injected muscles, oral ebselen): did not affect
body weight (C57BL/6J mice [7]; 15 mg/kg dexamethasone with ebselen, i.p. daily 14 days, vs untreated mice): significant weight loss
quadriceps mass (C57BL/6J mice [7]; 15 mg/kg dexamethasone, 1 or 3 mg/kg ebselen, i.p. daily 14 days): recovered
hanging time (C57BL/6J mice [7]; inverted hanging test, vs dexamethasone-treated mice): significantly enhanced
IMPase activity (C57BL/6J mice [7]; quadriceps): inhibitory effect of ebselen on IMPase activity was confirmed
muscle fiber cross-sectional area (C57BL/6J mice [7]; quadriceps, histology): increased
ratio of larger fibers (C57BL/6J mice [7]; quadriceps, histology): increased
expression of Atrogin-1 and Murf-1 (C57BL/6J mice [7]; quadriceps, qPCR): effectively reduced
grip strength (C57BL/6J mice [7]; vs dexamethasone-treated mice): significantly enhanced
concentration at which cytotoxicity was not observed (C2C12 myoblasts [3]): ≤ 10 µM
IC50 (C2C12 myoblasts [3]; Mus musculus, C2C12, 48 hours): 0.0224 mM
average myotube diameter (C2C12 myotubes [4]): did not show a decrease
Atrogin-1 and FoxO3a expression [5]: inhibited the up-regulation
protein synthesis (C2C12 myotubes [8]; alone or with dexamethasone): effective in increasing protein synthesis
protein synthesis (C2C12 myotubes [8]; dexamethasone-treated myotubes): increased
FoxO3a up-regulation caused by dexamethasone (FoxO3a): inhibited

Compound: 6-Bromoindirubin-3-oxime [BIO]
myotube formation and overall myotube diameters (C2C12 myoblasts [1]): inhibited myotube formation

Compound: O[C@H]1[C@H](O)[C@@H](O)[C@H](O)[C@@H](O)[C@H]1O [myo-inositol]
average myotube diameter (C2C12 myoblasts [1]; [10]): decreased
average myotube length (C2C12 myoblasts [1]; [10]): decreased
myotube morphology (C2C12 myoblasts [1]; 100 mM, 48 hours, H&E): induced shortened and narrower myotubes
number of immature myotubes (C2C12 myoblasts [1]; DM with 100 mM myo-inositol, 48 hours): reduced
proportion of larger diameter myotubes (C2C12 myoblasts [1]; no dexamethasone): reduction
expression of MyoG and Myh2 [9]: reduced
expression of Pax7 and Myf5 [9]: increased
cytotoxicity (C2C12 myotubes [2]; myotubes, 500 mM, 48 hours): significant cytotoxicity
concentration without cytotoxicity / effect on cell viability (C2C12 myotubes [2]; myotubes, MTT, 48 hours): below 250 mM
myotube length (C2C12 myotubes [4]): significantly reduced
average myotube diameter (C2C12 myotubes [4]): significantly reduced
expression of atrogin-1, MuRF-1 and FoxO3a ([5]; 10 μM dexamethasone, 100 mM myo-inositol): further increased
protein synthesis (C2C12 myotubes [8]; alone or with dexamethasone): decreased

Compound: O=C1c2ccccc2[Se](=O)N1c1ccccc1 (centres unmarked) [ebselen oxide]
Atrogin-1 and FoxO3a expression [5]: inhibited the expression

Compound: CC(Oc1ccc(O)cc1)(P(=O)(O)O)P(=O)(O)O [L-690,330, [1-(4-hydroxyphenoxy)-1-phosphonoethyl]phosphonic acid]
concentration at which cytotoxicity was not observed (C2C12 myoblasts [3]): up to 50 μM
proportion of larger diameter myotubes (C2C12 myotubes [4]): larger diameter myotubes were observed
average myotube diameter (C2C12 myotubes [4]): increased
FoxO3a expression ([5]; 10 μM dexamethasone): inhibited the up-regulation
